Data on 16 molecules can be found in PubChem BioAssay AID248 (DTP/NCI, 2004).

Several values for one entry are separate records, joined by “and”; a condition that tells them apart may be missing. Equal values may be shown once. Inconclusive results and toxic doses are left out.

This assay has as its system L1210 leukemia ip in BDF1 mice, survival T/C. As to the kind of experiment: NCI In Vivo Anticancer Drug Screen. Data for tumor model L1210 Leukemia (intraperitoneal) in B6D2F1 (BDF1) mice. To be noted: higher = longer survival. An outline of the steps: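 Antitumor effect is assessed in tumor-bearing animals. Survival in the compound arm is compared with a vehicle-dosed control arm and expressed as their quotient.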

The mark [1] stands for this setting: endpoint: mean survival time, dose: 100.0 mg/kg/injection, schedule: Q01DX009 (ip), vehicle: saline with Tween-80.
Where [2] appears, read: endpoint: mean survival time, dose: 200.0 mg/kg/injection, schedule: Q01DX009 (ip), vehicle: saline with Tween-80.
The mark [3] stands for this setting: endpoint: mean survival time, dose: 400.0 mg/kg/injection, schedule: Q01DX009 (ip), vehicle: saline with Tween-80.
[4] abbreviates: endpoint: mean survival time, dose: 100.0 mg/kg/injection, schedule: Q04DX003 (ip), vehicle: Klucel (hydroxypropylcellulose) (HPC).
Where [5] appears, read: endpoint: mean survival time, dose: 200.0 mg/kg/injection, schedule: Q04DX003 (ip), vehicle: Klucel (hydroxypropylcellulose) (HPC).
Where [6] appears, read: endpoint: mean survival time, dose: 400.0 mg/kg/injection, schedule: Q04DX003 (ip), vehicle: Klucel (hydroxypropylcellulose) (HPC).
[7] abbreviates: endpoint: mean survival time, dose: 300.0 mg/kg/injection, schedule: Q01DX001 (ip), vehicle: carboxymethylcellulose (CMC).

For `S=C(NC1CCCCC1)N1CCC(CCCC2CCN(C(=S)NC3CCCCC3)CC2)CC1`, the T/C runs as follows: under setting [1], 95 % of control; under setting [2], 97 % of control; under setting [3], 97 % of control.

For `O=c1ccc2c(-c3ccccc3O)c3ccc(O)cc3oc-2c1`, the T/C was 93 % of control under setting [4], 94 % of control under setting [5] and 92 % of control under setting [6].

With `COC(=O)C(Cc1ccc(N(CCCl)CCCl)cc1)N=NNc1nc[nH]c1C(N)=O` (stereo not drawn), the T/C runs as follows: (endpoint: mean survival time, dose: 11.0 mg/kg/injection, schedule: Q03HX024 (ip), vehicle: other) 150 % of control; (endpoint: mean survival time, dose: 17.0 mg/kg/injection, schedule: Q03HX024 (ip), vehicle: other) 176 % of control; (endpoint: mean survival time, dose: 25.0 mg/kg/injection, schedule: Q03HX024 (ip), vehicle: other) 157 % of control; (endpoint: mean survival time, dose: 38.0 mg/kg/injection, schedule: Q01DX009 (ip), vehicle: other) 152 % of control; (endpoint: mean survival time, dose: 56.0 mg/kg/injection, schedule: Q01DX009 (ip), vehicle: other) 114 % of control; (endpoint: mean survival time, dose: 88.0 mg/kg/injection, schedule: Q04DX003 (ip), vehicle: other) 166 % of control. The T/C (endpoint: mean survival time, dose: 134.0 mg/kg/injection, schedule: Q04DX003 (ip), vehicle: other) was 160 % of control; the T/C (endpoint: mean survival time, dose: 200.0 mg/kg/injection, schedule: Q01DX001 (ip), vehicle: carboxymethylcellulose (CMC)) is 161 % of control; the T/C (endpoint: mean survival time, dose: 200.0 mg/kg/injection, schedule: Q04DX003 (ip), vehicle: other) is 103 % of control; the T/C under setting [7] is 181 % of control; the T/C (endpoint: mean survival time, dose: 375.0 mg/kg/injection, schedule: Q01DX001 (ip), vehicle: carboxymethylcellulose (CMC)) is 151 % of control; the T/C (endpoint: median survival time, dose: 12.5 mg/kg/injection, schedule: Q01DX009 (ip), vehicle: steriod suspending solution) was 122 % of control. The T/C (endpoint: median survival time, dose: 50.0 mg/kg/injection, schedule: Q01DX009 (ip), vehicle: steriod suspending solution) was 105 % of control and the T/C (endpoint: median survival time, dose: 100.0 mg/kg/injection, schedule: Q01DX009 (ip), vehicle: steriod suspending solution) is 88 % of control.

In the case of `CC(=O)OC1CCC2(C)C(CCC3C4CCC(=O)OC4(C)CC(=O)C32)C1` (stereo not drawn), the T/C by setting is: (endpoint: mean survival time, dose: 100.0 mg/kg/injection, schedule: Q04DX003 (sc), vehicle: steriod suspending solution) 104 % of control; (endpoint: mean survival time, dose: 200.0 mg/kg/injection, schedule: Q04DX003 (sc), vehicle: steriod suspending solution) 100 % of control; (endpoint: mean survival time, dose: 400.0 mg/kg/injection, schedule: Q04DX003 (sc), vehicle: steriod suspending solution) 97 % of control.

Regarding `Clc1nc(Br)[nH]c1Cl`, the T/C (endpoint: mean survival time, dose: 1.56 mg/kg/injection, schedule: Q01DX009 (ip), vehicle: Klucel (hydroxypropylcellulose) (HPC)) is 100 % of control; the T/C (endpoint: mean survival time, dose: 3.12 mg/kg/injection, schedule: Q01DX009 (ip), vehicle: Klucel (hydroxypropylcellulose) (HPC)) is 107 % of control; the T/C (endpoint: mean survival time, dose: 6.25 mg/kg/injection, schedule: Q01DX009 (ip), vehicle: Klucel (hydroxypropylcellulose) (HPC)) is 100 % of control and 113 % of control.

Regarding `CCOC(=O)c1cnn(-c2ccccc2)c1N`, the T/C runs as follows: (endpoint: mean survival time, dose: 25.0 mg/kg/injection, schedule: Q01DX009 (ip), vehicle: saline) 104 % of control; (endpoint: mean survival time, dose: 50.0 mg/kg/injection, schedule: Q01DX009 (ip), vehicle: saline) 108 % of control; (endpoint: mean survival time, dose: 100.0 mg/kg/injection, schedule: Q01DX009 (ip), vehicle: Klucel (hydroxypropylcellulose) (HPC)) 98 % of control; (endpoint: mean survival time, dose: 100.0 mg/kg/injection, schedule: Q01DX009 (ip), vehicle: saline) 105 % of control; under setting [4], 96 % of control; (endpoint: mean survival time, dose: 200.0 mg/kg/injection, schedule: Q01DX009 (ip), vehicle: Klucel (hydroxypropylcellulose) (HPC)) 100 % of control. For the same molecule, the T/C under setting [5] was 100 % of control; the T/C (endpoint: mean survival time, dose: 400.0 mg/kg/injection, schedule: Q01DX009 (ip), vehicle: Klucel (hydroxypropylcellulose) (HPC)) is 102 % of control; the T/C under setting [6] was 100 % of control.

On to `C#CC1(OC(O)C(Cl)(Cl)Cl)CCCCC1` (stereo not drawn), for which the T/C reads like this: (endpoint: mean survival time, dose: 100.0 mg/kg/injection, schedule: Q04DX003 (ip), vehicle: saline) 103 % of control; (endpoint: mean survival time, dose: 200.0 mg/kg/injection, schedule: Q04DX003 (ip), vehicle: saline) 106 % of control; (endpoint: mean survival time, dose: 400.0 mg/kg/injection, schedule: Q04DX003 (ip), vehicle: saline) 103 % of control.

As to `C1CSP(SCCSP2SCCS2)S1`, the T/C (endpoint: mean survival time, dose: 25.0 mg/kg/injection, schedule: Q01DX009 (ip), vehicle: carboxymethylcellulose (CMC)) is 87 % of control and 88 % of control; the T/C (endpoint: mean survival time, dose: 25.0 mg/kg/injection, schedule: Q04DX002 (ip), vehicle: carboxymethylcellulose (CMC)) was 95 % of control and 90 % of control; the T/C (endpoint: mean survival time, dose: 50.0 mg/kg/injection, schedule: Q01DX009 (ip), vehicle: carboxymethylcellulose (CMC)) was 95 % of control; the T/C (endpoint: mean survival time, dose: 50.0 mg/kg/injection, schedule: Q04DX002 (ip), vehicle: carboxymethylcellulose (CMC)) was 97 % of control and 90 % of control; the T/C (endpoint: mean survival time, dose: 100.0 mg/kg/injection, schedule: Q01DX009 (ip), vehicle: carboxymethylcellulose (CMC)) was 95 % of control and 91 % of control; the T/C (endpoint: mean survival time, dose: 200.0 mg/kg/injection, schedule: Q04DX002 (ip), vehicle: carboxymethylcellulose (CMC)) was 94 % of control.

In the case of `O=C1C(=Cc2ccc([N+](=O)[O-])cc2)C(=O)c2ccccc21`, the T/C (endpoint: mean survival time, dose: 12.5 mg/kg/injection, schedule: Q01DX009 (ip), vehicle: Klucel (hydroxypropylcellulose) (HPC)) was 93 % of control; the T/C (endpoint: mean survival time, dose: 12.5 mg/kg/injection, schedule: Q04DX003 (ip), vehicle: Klucel (hydroxypropylcellulose) (HPC)) is 97 % of control; the T/C (endpoint: mean survival time, dose: 25.0 mg/kg/injection, schedule: Q01DX009 (ip), vehicle: Klucel (hydroxypropylcellulose) (HPC)) is 88 % of control; the T/C (endpoint: mean survival time, dose: 25.0 mg/kg/injection, schedule: Q04DX003 (ip), vehicle: Klucel (hydroxypropylcellulose) (HPC)) is 90 % of control; the T/C (endpoint: mean survival time, dose: 50.0 mg/kg/injection, schedule: Q01DX009 (ip), vehicle: Klucel (hydroxypropylcellulose) (HPC)) was 98 % of control; the T/C (endpoint: mean survival time, dose: 50.0 mg/kg/injection, schedule: Q04DX003 (ip), vehicle: Klucel (hydroxypropylcellulose) (HPC)) is 93 % of control.

For the molecule `O=C1CSC(=S)N1c1ccc(N2C(=O)CSC2=S)cc1`, the T/C by setting is: (endpoint: mean survival time, dose: 100.0 mg/kg/injection, schedule: Q04DX002 (ip), vehicle: saline with Tween-80) 90 % of control; (endpoint: mean survival time, dose: 200.0 mg/kg/injection, schedule: Q04DX002 (ip), vehicle: saline with Tween-80) 96 % of control; (endpoint: mean survival time, dose: 400.0 mg/kg/injection, schedule: Q04DX002 (ip), vehicle: saline with Tween-80) 100 % of control.

Regarding `O=C1OC(=O)C2C1C1(Cl)CC2(Cl)C(Cl)=C1Cl` (stereo not drawn), the T/C (endpoint: mean survival time, dose: 75.0 mg/kg/injection, schedule: Q01DX009 (ip), vehicle: other) is 101 % of control and the T/C (endpoint: mean survival time, dose: 150.0 mg/kg/injection, schedule: Q01DX009 (ip), vehicle: other) is 88 % of control.

Take `CC1(C)CC2(C)OC3(C)CC(C)(C)OC3(C)OC2(C)O1` (stereo not drawn): the T/C is 107 % of control (endpoint: mean survival time, dose: 100.0 mg/kg/injection, schedule: Q01DX001 (ip), vehicle: Klucel (hydroxypropylcellulose) (HPC)); 102 % of control (endpoint: mean survival time, dose: 200.0 mg/kg/injection, schedule: Q01DX001 (ip), vehicle: Klucel (hydroxypropylcellulose) (HPC)); 102 % of control (endpoint: mean survival time, dose: 400.0 mg/kg/injection, schedule: Q01DX001 (ip), vehicle: Klucel (hydroxypropylcellulose) (HPC)).

As for `CC(SC1=NCCN1)C(=O)O` (stereo not drawn), the T/C by setting is: (endpoint: mean survival time, dose: 100.0 mg/kg/injection, schedule: Q01DX001 (ip), vehicle: saline) 98 % of control; (endpoint: mean survival time, dose: 200.0 mg/kg/injection, schedule: Q01DX001 (ip), vehicle: saline) 94 % of control; (endpoint: mean survival time, dose: 400.0 mg/kg/injection, schedule: Q01DX001 (ip), vehicle: saline) 98 % of control.

Turning to `OCCCCCCCCCCC[n+]1ccccc1Cc1ccccc1`, the T/C (endpoint: mean survival time, dose: 75.0 mg/kg/injection, schedule: Q01DX001 (ip), vehicle: Klucel (hydroxypropylcellulose) (HPC)) is 92 % of control.

Turning to `CCOC(=O)C(C(=O)OCC)C1CCS(=O)(=O)C1` (stereo not drawn), the T/C was 103 % of control under setting [1], 96 % of control under setting [2] and 92 % of control under setting [3].

On to `CC1CCC(C(O)(C(=O)O)C2CCCCC2)CC1C` (stereo not drawn), for which the T/C (endpoint: mean survival time, dose: 75.0 mg/kg/injection, schedule: Q01DX001 (ip), vehicle: carboxymethylcellulose (CMC)) is 97 % of control; the T/C (endpoint: mean survival time, dose: 150.0 mg/kg/injection, schedule: Q01DX001 (ip), vehicle: carboxymethylcellulose (CMC)) is 105 % of control; the T/C under setting [7] was 100 % of control.
